Data as given in patent publication US4481197A, “Anti-inflammatory deoxyribosides” (Burroughs Wellcome Co., priority 1982, dated 1984).

Tests used:
[1] = tested on: carrageenan pleurisy (3 hour exudate volume); assay: Carrageenan Pleurisy Assay (CPA), acute anti-inflammatory activity; type: in vivo; details: statement in words
Experimental: Following the procedure described by Vinegar et al in Proc. Soc. Exp. Biol. Med.,143, 711, (1973), and recently modified (Vinegar et al., Eur. J. Rheum. Inflam. 1, 204 (1978)) the acute anti-inflammatory activity of 4-amino-1-(2-deoxy-β-D-ribofuranosyl)-1H-imidazo-[4,5-c]-pyridine was compared with that of known anti-inflammatory drugs. The average 3 hour exudate volume for each drug-treated group was determined and the % inhibition relative to solvent-fed control animals calculated, the ED50 (mg/kg of body weight) being the dose required to reduce the 3 hour exudate volume by 50%. There were 5 animals in each drug-treated group and the control group.

[2] = tested on: mouse neutrophil chemotaxis; assay: Mouse neutrophil chemotaxis; type: cell-based
Analgesic activity = details: in vivo
[3] = Side effects / liver damage in animal models; details: in vivo
inflammation = assay: Anti-inflammatory effectiveness by route; type: in vivo; details: orally, systemically and locally
[4] = tested on: microbial purine nucleoside phosphorylase; details: Doskocil and Holy 1977; cited from earlier work

## Nc1nccc2c1ncn2[C@H]1C[C@H](O)[C@@H](CO)O1 [4-amino-1-(2-deoxy-β-D-ribofuranosyl)-1H-imidazo-[4,5-c]-pyridine]
[1]
  inhibition of carrageenan-induced pleurisy: potent inhibitor
[2]
  inhibition of mouse neutrophil chemotaxis: potent inhibitor
Analgesic activity
  analgesic activity per se: no analgesic activity per se
[3]
  side effects associated with prostaglandin inhibitors (gastric damage, inhibition of platelet aggregation): free of the side effects
  side effects of the anti-inflammatory steroids: free of the side effects
inflammation
  effectiveness as anti-inflammatory agent: effective

## Nc1ncnc2c1ccn2[C@@H]1O[C@H](CO)[C@@H](O)[C@H]1O [7-deazaadenosine]
[4]
  substrate for microbial purine nucleoside phosphorylase: not to be substrates

## OC[C@H]1O[C@@H](n2ccc3c(O)ncnc32)[C@H](O)[C@@H]1O [7-deazainosine]
[4]
  substrate for microbial purine nucleoside phosphorylase: not to be substrates

## Nc1nc2c(nnn2[C@@H]2O[C@H](CO)[C@@H](O)[C@H]2O)c(=O)[nH]1 [S-azaguanosine]
[4]
  substrate for microbial purine nucleoside phosphorylase: not to be substrates
